# Results reported in patent US20140072557A1, “MEDICINAL AGENT FOR SUPPRESSING MALIGNANT TUMOR METASTASIS” (priority 2011, published 2014).
# Key:
# [1] = system: A549 cells; assay: EMT induced by TGF-β1 in A549 cells (morphology, quantitative RT-PCR); type: cell-based; settings: 1 μM hANP, TGF-β1 stimulus
# Protocol: Using a 6-well dish, the A549 cells were cultured at 1×10^5 cells/well, and the culture medium was replaced with DMEM culture medium free from FBS the next day. After 24 hours of culture, the cells were used in the following experiment.
# An ANP group (ANP solution was added (final concentration: 1 μM)) and a control group (the same amount of physiological saline was added) were prepared, and after 2 hours from the addition, TGF-β1 was added so that the final concentration would be 0.125, 0.25, 0.5, 1.0, and 2.0 ng/mL. After 24 hours had passed, the morphological change in the cells was observed under a microscope and photographed (FIG. 3).
# Then, total RNA was collected using TRIZOL total RNA isolation reagent (made by Invitrogen), cDNA was synthesized using reverse transcriptase, and the mRNA levels of E-cadherin, N-cadherin, VEGF-A, PDGF-B, TNF-α, and IL-6 were measured by quantitative RT-PCR. It is known that in EMT, the expression of E-cadherin decreases while the expression of N-cadherin increases. The expression ratio of N-cadherin/E-cadherin is considered to be useful as an indicator of the degree of EMT.
# [2] = system: A549 cells; assay: Mouse tail vein injection metastasis test, GFP-labeled A549 cells; type: in vivo; settings: hANP 0.5 μg/kg/min by subcutaneous osmotic pump for 4 weeks, observed 8 weeks after injection, Balb/c (nu/nu) mice
# Protocol: Six-week-old male Balb/c (nu/nu) mice were used (purchased from Japan SLC, Inc.).
# The osmotic pumps used were MODEL2004 (for 28-day administration) made by ALZET (Cupertino, Calif.).
# Mice into which an osmotic pump containing 0.9% physiological saline was subcutaneously implanted in the back were assigned to the control group. Similarly, mice into which an osmotic pump containing hANP prepared for administration at 0.5 μg/kg/min was subcutaneously implanted were assigned to the ANP group. Injection of a tumor cell suspension was performed on the day after the osmotic pump implantation.
# As the tumor cells, A549 cell line labeled with GFP (Green Fluorescent Protein) was purchased from Wako Pure Chemical Industries, Ltd., and cultured in RPMI1640 (Life Technologies Corp.) containing 10% FCS under 5% CO2 at 37° C. The cells in a subconfluent state were treated with EDTA-trypsin, centrifuged, and then suspended in serum free DMEM so as to be 1×10^7 cells/mL. The A549 cell suspension (100 μL/body, 1×10^6 cells) was injected to the tail vein of the mice.
smiles,measurement,setting,value
"CC[C@H](C)[C@@H]1NC(=O)[C@H](CCCNC(=N)N)NC(=O)[C@H](CC(=O)O)NC(=O)[C@H](CCSC)NC(=O)[C@H](CCCNC(=N)N)NC(=O)CNC(=O)CNC(=O)[C@H](Cc2ccccc2)NC(=O)[C@@H](NC(=O)[C@H](CO)NC(=O)[C@H](CO)NC(=O)[C@H](CCCNC(=N)N)NC(=O)[C@H](CCCNC(=N)N)NC(=O)[C@H](CC(C)C)NC(=O)[C@@H](N)CO)CSSC[C@@H](C(=O)N[C@@H](CC(N)=O)C(=O)N[C@@H](CO)C(=O)N[C@@H](Cc2ccccc2)C(=O)N[C@@H](CCCNC(=N)N)C(=O)N[C@@H](Cc2ccc(O)cc2)C(=O)O)NC(=O)CNC(=O)[C@H](CC(C)C)NC(=O)CNC(=O)[C@H](CO)NC(=O)[C@H](CCC(N)=O)NC(=O)[C@H](C)NC(=O)CNC1=O [hANP, carperitide]",expression of E-cadherin under TGF-β1 stimulus,[1],inhibited decrease
same,expression of N-cadherin induced by TGF-β1,[1],significantly suppressed increase
same,expression ratio of N-cadherin/E-cadherin,[1],significantly decreased
same,gene expression of IL-6 (mRNA level),[1],significantly suppressed
same,gene expression of PDGF-B (mRNA level),[1],significantly suppressed
same,gene expression of TNF-α (mRNA level),[1],significantly suppressed
same,gene expression of VEGF-A (mRNA level),[1],significantly suppressed
same,morphological change associated with EMT induced by TGF-β1,[1]; 24 hours,significantly suppressed
same,lung metastasis (number of nodules),[2],significantly suppressed
